Results taken from patent US9546157B2, “Asymmetric piperidinyl-substituted ureas as medicines” (Helsinn Healthcare SA, priority 2014, dated 2017).

Assays:
[1] = molecular target: T1, GHSR1a (Homo sapiens, UniProt Q92847); assay: Calcium FLIPR assay, GHSR-1a antagonism (reduction of ghrelin response); type: cell-based; conditions: HEK293/GHSR1a cells, ghrelin 10 nM
T1 construct: expressed in transfected cells; host or cells: HEK293
Summary of the method: (§1)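 Calcium flux measured by FLIPR in GHSR1a-expressing HEK293 cells after 30-60 min dye preloading. Compound was added at t=20 sec, alone for agonism or with ghrelin (10 nM) for antagonism, and fluorescence recorded for 2 minutes. EC50 and IC50 were estimated from dose-response data.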

[2] = molecular target: T1, GHSR1a; assay: Calcium FLIPR assay, GHSR-1a agonism; type: cell-based; parameters: Emax: unit not given here; conditions: HEK293/GHSR1a cells
Summary of the method: as §1

T1 sequence (Q92847 whole entry): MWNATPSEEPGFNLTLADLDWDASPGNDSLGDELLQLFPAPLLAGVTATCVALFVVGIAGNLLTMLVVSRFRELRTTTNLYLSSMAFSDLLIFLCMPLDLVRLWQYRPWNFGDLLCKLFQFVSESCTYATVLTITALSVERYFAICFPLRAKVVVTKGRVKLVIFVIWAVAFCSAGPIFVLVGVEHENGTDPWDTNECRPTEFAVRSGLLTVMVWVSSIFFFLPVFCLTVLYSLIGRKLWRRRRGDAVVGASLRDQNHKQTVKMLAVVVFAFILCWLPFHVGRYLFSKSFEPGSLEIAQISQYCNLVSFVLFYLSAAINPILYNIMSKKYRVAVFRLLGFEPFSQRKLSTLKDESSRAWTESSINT

| Compound | IC50 [1] | EC50 [2] | Emax [2] |
| --- | --- | --- | --- |
| CC(NC(=O)N(C)C1CCN(C)CC1)c1ccc(-c2ccc(N)cc2)c(Cl)c1Cl (stereo not shown) [Compound H0517, 3-(1-(4′-amino-2,3-dichloro-[1,1′-biphenyl]-4-yl)ethyl)-1-methyl-1-(1-methylpiperidin-4-yl)urea] | 19 nM | > 30000 nM | – |
| CCc1ccc(C(C)NC(=O)N(C)C2CCN(C)CC2)c(Cl)c1Cl (stereo not shown) [Compound H0628, 3-(1-(2,3-dichloro-4-ethylphenyl)ethyl)-1-methyl-1-(1-methylpiperidin-4-yl)urea] | 59 nM | 101 nM | 4433 |
| CC(NC(=O)N(C)C1CCN(C)CC1)c1ccc(-c2ccnnc2)c(Cl)c1Cl (stereo not shown) [Compound H0783, 3-(1-(2,3-dichloro-4-(pyridazin-4-yl)phenyl)ethyl)-1-methyl-1-(1-methylpiperidin-4-yl)urea] | 681 nM | 30 nM | – |
| CC(NC(=O)N(C)C1CCN(C)CC1)c1cnc(C#CC2CC2)c(Cl)c1Cl (stereo not shown) [Compound H0884, 3-(1-(4,5-dichloro-6-(cyclopropylethynyl)pyridin-3-yl)ethyl)-1-methyl-1-(1-methylpiperidin-4-yl)urea] | 197 nM | > 30000 nM | – |
| CC(NC(=O)N(C)C1CCN(C)CC1)c1ccc(OC2CC2)c(Cl)c1Cl (stereo not shown) [Compound H0875, 3-(1-(2,3-dichloro-4-cyclopropoxyphenyl)ethyl)-1-methyl-1-(1-methylpiperidin-4-yl)urea] | 91 nM | 50 nM | 3751 |
| COC(=O)C(NC(=O)N(C)C1CCN(C)CC1)c1ccc(-c2cccs2)c(Cl)c1Cl (stereo not shown) [Compound H0660, methyl 2-(2,3-dichloro-4-(thiophen-2-yl)phenyl)-2-(3-methyl-3-(1-methylpiperidin-4-yl)ureido)acetate] | 69 nM | 180 nM | 2100 |
| CC(NC(=O)N(C)C1CCN(C)CC1)c1ccc(C2=CCCCC2)c(Cl)c1Cl (stereo not shown) [Compound H0520, 3-(1-(2,3-dichloro-2′,3′,4′,5′-tetrahydro-[1,1′-biphenyl]-4-yl)ethyl)-1-methyl-1-(1-methylpiperidin-4-yl)urea] | 202 nM | 394 nM | – |
| Cc1cncc(-c2ccc(C(C)NC(=O)N(C)C3CCN(C)CC3)c(Cl)c2Cl)n1 (stereo not shown) [Compound H0815, 3-(1-(2,3-dichloro-4-(6-methylpyrazin-2-yl)phenyl)ethyl)-1-methyl-1-(1-methylpiperidin-4-yl)urea] | 176 nM | > 30000 nM | – |
| CC(NC(=O)N(C)C1CCN(C)CC1)c1ccc(C#CCc2cccs2)c(Cl)c1Cl (stereo not shown) [Compound H0785, 3-(1-(2,3-dichloro-4-(3-(thiophen-2-yl)prop-1-yn-1-yl)phenyl)ethyl)-1-methyl-1-(1-methylpiperidin-4-yl)urea] | 33 nM | 90 nM | 2869 |
| CC(NC(=O)N(C)C1CCN(C)CC1)c1ccc(-c2cnc[nH]2)c2ccccc12 (stereo not shown) [Compound H0599, 3-(1-(4-(1H-imidazol-5-yl)naphthalen-1-yl)ethyl)-1-methyl-1-(1-methylpiperidin-4-yl)urea] | 212 nM | 478 nM | – |
| CC(NC(=O)N(C)C1CCN(C)CC1)c1ccc(C(=O)Nc2cccs2)c(Cl)c1Cl (stereo not shown) [Compound H0773, 2,3-dichloro-4-(1-(3-methyl-3-(1-methylpiperidin-4-yl)ureido)ethyl)-N-(thiophen-2-yl)benzamide] | 608 nM | > 30000 nM | – |
| C#Cc1ccc(C(C)NC(=O)N(OCC)C2CCN(C)CC2)c(Cl)c1Cl (stereo not shown) [Compound H0749, 3-(1-(2,3-dichloro-4-ethynylphenyl)ethyl)-1-ethoxy-1-(1-methylpiperidin-4-yl)urea] | 111 nM | 397 nM | 1554 |
| CC(NC(=O)N(C)C1CCN(C)CC1)c1ccc(-c2cncc(-c3ncccn3)c2)c(Cl)c1Cl (stereo not shown) [Compound H0735, 3-(1-(2,3-dichloro-4-(5-(pyrimidin-2-yl)pyridin-3-yl)phenyl)ethyl)-1-methyl-1-(1-methylpiperidin-4-yl)urea] | 209 nM | > 30000 nM | – |
